From patent publication US4843087A (priority 1986, dated 1989) come the findings set out here.

Values after ≈ are worked out from the molar mass of the structure shown.

This test relates to human rhinovirus (HRV) serotypes. Nature of the test: microbe, parasite or virus in culture. The class given is cell-based. The settings on record: for MIC50: read-out: Rhinovirus MIC50; for IC (MIC80 of serotype panel): read-out: Rhinovirus MIC80.

As to `Cc1cc(CCCCCOc2ccc(C3=NC(C)(C)CO3)cc2Cl)on1` [Example 57, 5-{5-[2-Chloro-4-(4,5-dihydro-4,4-dimethyl-2-oxazolyl)phenoxy]pentyl}-3-methylisoxazole], the MIC50 is 50.1 µg/mL (≈ 133 µM) and the IC (MIC80 of serotype panel) came out at 99 µg/mL.

Take `Cc1cc(CCCCCCCOc2ccc(C3=NC(CCl)CO3)cc2)on1` (stereo not drawn) [Example 140, 5-{7-[4-(4-Chloromethyl-4,5-dihydro-2-oxazolyl)phenoxy]heptyl}-3-methylisoxazole]: the MIC50 was found to be 0.49 µg/mL (≈ 1.25 µM) and the IC (MIC80 of serotype panel) came to 26.9 µg/mL.

With `Cc1cc(CCCCCCCOc2ccc(C3=NC[C@H](C)O3)cc2)on1` [Example 122, (S)-5-{7-[4-(4,5-Dihydro-5-methyl-2-oxazolyl)phenoxy]heptyl}-3-methylisoxazole], the MIC50 amounted to 0.24 µg/mL (≈ 0.673 µM) and the IC (MIC80 of serotype panel) was 50.3 µg/mL.

For `CCCCCCc1cc(CCOc2ccc(C3=N[C@@H](C)CO3)cc2)on1` [Example 132, (S)-5-{2-[4-(4,5-Dihydro-4-methyl-2-oxazolyl)phenoxy]ethyl}-3-hexylisoxazole], the MIC50 was 1.02 µg/mL (≈ 2.88 µM) and the IC (MIC80 of serotype panel) was found to be 1.9 µg/mL.

In the case of `Cc1cc(CCCCCOc2c(Cl)cc(C(=O)NCCCCl)cc2Cl)on1` [156(a), 3,5-Dichloro-N-(3-chloropropyl)-4-{[5-(3-methyl-5-isoxazolyl)pentyl]oxy}benzamide], the MIC50 came out at 0.795 µg/mL (≈ 1.83 µM) and the IC (MIC80 of serotype panel) came to 99 µg/mL.

As to `CC[C@H]1COC(c2ccc(OCCCCCCCc3cc(C)no3)cc2)=N1` [Example 124, (S)-5-{7-[4-(4-Ethyl-4,5-dihydro-2oxazolyl)phenoxy]heptyl}-3-methylisoxazole], the MIC50 is 0.36 µg/mL (≈ 0.972 µM) and the IC (MIC80 of serotype panel) is 2.4 µg/mL.

On to `CCC[C@H]1COC(c2ccc(OCCCCCCCc3cc(C)no3)cc2)=N1` [Example 128, (S)-5-{7-[4-(4,5-Dihydro-4-propyl-2-oxazolyl)phenoxy]heptyl}-3-methylisoxazole], for which the MIC50 stood at 0.245 µg/mL (≈ 0.637 µM) and the IC (MIC80 of serotype panel) is 27.1 µg/mL.

Consider `CCCC[C@@H]1COC(c2ccc(OCCCCCCCc3cc(C)no3)cc2)=N1` [Example 131, (R)-5-{7-[4-(4-Butyl-4,5-dihydro-2-oxazolyl)phenoxy]heptyl}-3-methylisoxazole], for which the MIC50 turned out to be 1.44 µg/mL (≈ 3.61 µM) and the IC (MIC80 of serotype panel) was 2.38 µg/mL.

With `Cc1cc(CCCCCCCOc2ccc(C3=NCC(CO)O3)cc2)on1` (stereo not drawn) [Example 23, 5-{7-[4-(4,5-Dihydro-5-hydroxymethyl-2-oxazolyl)phenoxy]heptyl}-3-methylisoxazole], the MIC50 stood at 1.55 µg/mL (≈ 4.16 µM) and the IC (MIC80 of serotype panel) stood at 2.9 µg/mL.

As to `Cc1cc(CCCCOc2ccc(C3=NC(C)(C)CO3)cc2Cl)on1` [Example 66, 5-{4-[2-Chloro-4-(4,5-dihydro-4,4-dimethyl-2-oxazolyl)phenoxy]butyl}-3-methylisoxazole], the MIC50 came out at 0.78 µg/mL (≈ 2.15 µM) and the IC (MIC80 of serotype panel) came to 99 µg/mL.

Consider `C=CCC1COC(c2ccc(OCCCCCCCc3cc(C)no3)cc2)=N1` (stereo not drawn) [Example 139, 5-{7-[4-(4,5-Dihydro-4-(2-propenyl)-2-oxazolyl)phenoxy]heptyl}-3-methylisoxazole], for which the MIC50 was found to be 0.795 µg/mL (≈ 2.08 µM) and the IC (MIC80 of serotype panel) was determined as 25.9 µg/mL.

On to `CCC[C@@H]1COC(c2ccc(OCCCCCCCc3cc(C)no3)cc2)=N1` [Example 129, (R)-5-{7-[4-(4,5-Dihydro-4-propyl-2-oxazolyl)phenoxy]heptyl}-3-methylisoxazole], for which the MIC50 was found to be 1.33 µg/mL (≈ 3.46 µM) and the IC (MIC80 of serotype panel) came out at 2.6 µg/mL.

As to `Cc1cc(CCCCCOc2c(Cl)cc(C3=NC(CO)CO3)cc2Cl)on1` (stereo not drawn) [Example 138, 5-{5-[2,6-Dichloro-4-(4,5-dihydro-4-hydroxymethyl-2-oxazolyl)phenoxy]pentyl}-3-methylisoxazole], the MIC50 worked out at 0.2 µg/mL (≈ 0.484 µM) and the IC (MIC80 of serotype panel) amounted to 1.2 µg/mL.

For `Cc1cc(CCCCCOc2ccc(C3=N[C@@H](C)CO3)cc2)on1` [Example 121, (S)-5-{5-[4-(4,5-Dihydro-4-methyl-2-oxazolyl)phenoxy]pentyl}-3-methylisoxazole], the MIC50 turned out to be 0.09 µg/mL (≈ 0.274 µM) and the IC (MIC80 of serotype panel) turned out to be 26 µg/mL.

Consider `Cc1cc(CCCCCOc2c(Cl)cc(C3=NCCO3)cc2Cl)sn1` [150(b), 2-{3,5-Dichloro-4-[(5-(3-methyl-5-isothiazolyl)pentyl)oxy]phenyl}-4,5-dihydro-oxazole], for which the MIC50 was 0.12 µg/mL (≈ 0.3 µM) and the IC (MIC80 of serotype panel) was 0.35 µg/mL.

For `Cc1cc(CCCC(C)Oc2c(Cl)cc(C3=NCCO3)cc2Cl)on1` (stereo not drawn) [Example 110, 5-{4-[2,6-Dichloro-4-(4,5-dihydro-2-oxazolyl)phenoxy]pentyl}-3-methylisoxazole], the MIC50 is 0.24 µg/mL (≈ 0.626 µM) and the IC (MIC80 of serotype panel) was 0.64 µg/mL.

For `Cc1cc(CC/C=C\COc2c(Cl)cc(C3=NCCO3)cc2Cl)on1` [Example 112, 5-{5-[2,6-Dichloro-4-(4,5-dihydro-2-oxazolyl)phenoxy]-3-pentenyl}-3-methylisoxazole (Z-isomer)], the MIC50 was determined as 0.079 µg/mL (≈ 0.207 µM) and the IC (MIC80 of serotype panel) turned out to be 0.74 µg/mL.

For the compound `CC[C@@H]1COC(c2ccc(OCCCCCCCc3cc(C)no3)cc2)=N1` [Example 125, (R)-5-{7-[4-(4-Ethyl-4,5-dihydro-2-oxazolyl)phenoxy]heptyl}-3-methylisoxazole], the MIC50 stood at 0.69 µg/mL (≈ 1.86 µM) and the IC (MIC80 of serotype panel) stood at 2.3 µg/mL.

As to `Cc1cc(CCCCCCCOc2cccc(C3=NCCO3)c2)on1` [26(b), 5-{7-[3-(4,5-Dihydro-2-oxazolyl)phenoxy]heptyl}-3-methylisoxazole], the MIC50 worked out at 0.94 µg/mL (≈ 2.75 µM) and the IC (MIC80 of serotype panel) is 1.12 µg/mL.

With `Cc1cc(CCCCCOc2c(Cl)cc(C3=NCCO3)cc2C(F)(F)F)on1` [155(c), 5-{5-[2-Chloro-4-(4,5-dihydro-2-oxazolyl)-6-(trifluoromethyl)phenoxy]pentyl}-3-methylisoxazole], the MIC50 came to 0.11 µg/mL (≈ 0.264 µM) and the IC (MIC80 of serotype panel) turned out to be 0.56 µg/mL.

As to `Cc1cc(CCCCCOc2ccc(C3=NCCO3)c(Cl)c2Cl)on1` [Example 72, 5-{5-[2,3-Dichloro-4-(4,5-dihydro-2-oxazolyl)phenoxy]pentyl}-3-methylisoxazole], the MIC50 is 0.27 µg/mL (≈ 0.704 µM) and the IC (MIC80 of serotype panel) was found to be 0.69 µg/mL.

For `Cc1cc(CCCCCCCOc2ccc(C3=NCC(CCl)O3)cc2)on1` (stereo not drawn) [Example 39, 5-{7-[4-(5-Choromethyl-4,5-dihydro-2-oxazolyl)phenoxy]heptyl}-3-methylisoxazole], the MIC50 stood at 0.87 µg/mL (≈ 2.23 µM) and the IC (MIC80 of serotype panel) is 99 µg/mL.

`COCC1CN=C(c2ccc(OCCCCCCCc3cc(C)no3)cc2)O1` (stereo not drawn) [Example 40, 5-{7-[4-(4,5-Dihydro-5-methoxymethyl-2-oxazolyl)phenoxy]heptyl}-3-methylisoxazole]: the MIC50 is 0.535 µg/mL (≈ 1.38 µM) and the IC (MIC80 of serotype panel) was 99 µg/mL.

With `OCCOCOCc1cc(CCCCCOc2c(Cl)cc(C3=NCCO3)cc2Cl)on1` [149(b), 5-{5-[2,6-Dichloro-4-(4,5-dihydro-2-oxazolyl)phenoxy]pentyl}-3-isoxazolylmethoxymethoxyethanol], the MIC50 is 0.13 µg/mL (≈ 0.275 µM) and the IC (MIC80 of serotype panel) was 1.1 µg/mL.

As to `Cc1cc(CCCCCCCCOc2ccc(C3=NCCO3)cc2)on1` [18(b), 5-{8-[4-(4,5-Dihydro-2-oxazolyl)phenoxy]octyl}-3-methylisoxazole], the MIC50 came out at 1.75 µg/mL (≈ 4.91 µM) and the IC (MIC80 of serotype panel) was 2.1 µg/mL.

Take `Cc1cc(CCCCCCCOc2ccc(C3=N[C@@H](C(C)C)CO3)cc2)on1` [Example 126, (S)-5-{7-[4-(4,5-Dihydro-4-isopropyl-2-oxazolyl)phenoxy]heptyl}-3-methylisoxazole]: the MIC50 amounted to 1.23 µg/mL (≈ 3.2 µM) and the IC (MIC80 of serotype panel) was determined as 26.2 µg/mL.

Take `Cc1cc(CCCCCCCOc2ccc(C3=NC(C)CO3)cc2Cl)on1` (stereo not drawn) [17(b), 5-{7-[2-Chloro-4-(4,5-dihydro-4-methyl-2-oxazolyl)phenoxy]heptyl}-3-methylisoxazole]: the MIC50 worked out at 0.89 µg/mL (≈ 2.28 µM) and the IC (MIC80 of serotype panel) came to 26 µg/mL.

For `Cc1cc(CCCCCOc2c(Cl)cc(C3=NCCCO3)cc2Cl)on1` [156(b)], the MIC50 came to 0.705 µg/mL (≈ 1.77 µM) and the IC (MIC80 of serotype panel) was 28.6 µg/mL.

Regarding `Cc1cc(CCC=CCOc2ccc(C3=NCCO3)cc2)on1` [Example 55, 5-{5-[4-(4,5-Dihydro-2-oxazolyl)phenoxy]-3-pentenyl}-3-methylisoxazole], the MIC50 came to 49.6 µg/mL (≈ 159 µM) and the IC (MIC80 of serotype panel) was found to be 99 µg/mL.

With `Cc1cc(CCCCCOc2c(C)cc(C3=NCCO3)c(Cl)c2C)on1` [Example 160, 5-{5-[3-Chloro-4-(4,5-dihydro-2-oxazolyl)-2,6-dimethylphenoxy]pentyl}-3-methylisoxazole], the MIC50 was determined as 0.24 µg/mL (≈ 0.637 µM) and the IC (MIC80 of serotype panel) amounted to 0.4 µg/mL.

On to `Cc1cc(CCCCOc2ccc(C3=NC(C)CO3)cc2Cl)on1` (stereo not drawn) [Example 65, 5-{4-[2-Chloro-4-(4,5-dihydro-4-methyl-2-oxazolyl)phenoxy]butyl}-3-methylisoxazole], for which the MIC50 came to 0.26 µg/mL (≈ 0.745 µM) and the IC (MIC80 of serotype panel) stood at 0.45 µg/mL.

Regarding `Cc1cc(CCCCCCCCOc2ccc(C3=NC(C)CO3)cc2Cl)on1` (stereo not drawn) [27(b)], the MIC50 turned out to be 0.405 µg/mL (≈ 1 µM) and the IC (MIC80 of serotype panel) came out at 25.8 µg/mL.

Consider `Cc1cc(CCCCCCCOc2ccc(C3=NC(C)(C)CO3)cc2)on1` [Example 5, 5-{7-[4-(4,5-Dihydro-4,4-dimethyl-2oxazolyl)phenoxy]heptyl}-3-methylisoxazole], for which the MIC50 came out at 1.3 µg/mL (≈ 3.51 µM) and the IC (MIC80 of serotype panel) is 99 µg/mL.

In the case of `Cc1cc(CCCCCOc2c(C)cc(-c3nc(C)c(C)o3)cc2C)on1` [118(c), 5-{5-[4-(4,5-Dimethyl-2-oxazolyl)-2,6-dimethylphenoxy]pentyl}-3-methylisoxazole], the MIC50 is 0.37 µg/mL (≈ 1 µM) and the IC (MIC80 of serotype panel) was found to be 0.84 µg/mL.

Turning to `Cc1cc(CCCCCOc2ccc(C3=NCCO3)cc2C(C)(C)C)on1` [Example 76, 5-{5-[4-(4,5-Dihydro-2-oxazolyl)-2-(1,1-dimethylethyl)phenoxy]pentyl}-3-methylisoxazole], the MIC50 worked out at 50.1 µg/mL (≈ 135 µM) and the IC (MIC80 of serotype panel) is 99 µg/mL.

On to `Cc1cc(CCCCCOc2ccc(-c3nc(C)c(C)o3)cc2C(F)(F)F)on1` [Example 91, 5-{5-[4-(4,5-Dimethyl-2-oxazolyl)-2-trifluoromethylphenoxy]pentyl}-3-methylisoxazole], for which the MIC50 came out at 0.75 µg/mL (≈ 1.84 µM) and the IC (MIC80 of serotype panel) is 1.4 µg/mL.
